Patent US5668182A, “Method of calming or sedating an animal with a hydroxy benzaldehyde compound” (priority 1996, dated 1997)
Like-named read-outs stand apart in the source and are kept apart here.

Test system: mice
Test: Inverted screen test in mice (Example 4)
Assay type: in vivo
Conditions: for ED50: Mus musculus, ip, read-out: ED-50 (95% confidence limits); for potency relative to vanillin: early time points (up to 5 minutes), ethanol vehicle itself gives approximately 10% impairment
Method: An inverted screen test was performed on mice to investigate the effect of vanillin and vanillin analogs on muscular function. After i.p. injection of vanillin or vehicle, each mouse was placed on a wire screen (12.8 cm×12.8 cm with a 6 mm mesh size) and the screen was inverted. A positive effect was found if the drug caused the mouse to fall from the screen within 60 seconds. A negative effect was found if the mouse had the ability to climb from the underside of the screen to the top side of the screen within the 60 second time period. Hanging from the underside of the screen without falling but without climbing to the topside at 60 seconds is recorded as a one-half positive effect per the convention of Coughenour, L. L.; Mclean, J. R.; Parker, R. B., "A New Device for the Rapid Measurement of Impaired Motor Function in Mice," Pharmacol. Biochem. Behav., 6: 351-353; 1977. The test was performed at 2, 5, 10, and 30 minutes following administration of vanillin or vehicle. At each of those times, an ED-50 (and 95% confidence limits) was determined for vanillin. Six mice were used in each experimental group.
Several analogs of vanillin were also examined in this test. The chemical structures and chemical names for these compounds are described hereinabove.
The testing of these compounds was limited both by supply of compound and by solubility. Testing was performed at 2, 5, 10, 20 minutes after administration of drug or vehicle. The vehicles used to solubilize the analogs were as follows: 10% ethanol for TBJ1, TBJ2, and TBJ3; 3% ammonium hydroxide solution in saline for FSA (pH=9); 6.7% ammonium hydroxide in saline for TB17 (pH=9.3); and 20% ethanol, 1% ammonium hydroxide solution in saline for TB34 (pH=10.0). ED-50s of compounds (and 95% confidence limits) were calculated in cases where the data permitted the calculation.

`O=Cc1ccc(O)c(C(=O)O)c1` [FSA] was tested, and the “effect on performance in inverted screen test” value (not included in Table 4) was “failed to affect performance”.
`O=Cc1ccc(OCc2ccccc2)c(C(=O)O)c1` [TB17] was tested, and the “effect on performance in inverted screen test” value (not included in Table 4) was “failed to affect performance”.
For `O=Cc1ccc(OCc2ccc(C(=O)O)cc2)c(C(=O)O)c1` [TB34], the “effect on performance in inverted screen test” value (not included in Table 4) was “mild or erratic effects”.
In the case of `COC(=O)c1ccc(O)c(OC)c1` [TBJ1], the “effect on performance in inverted screen test” value (200 mg/kg, 5 minutes) is reported as 100%, the “effect on performance in inverted screen test” value (200 mg/kg, 20 minutes) is reported as 75% and the “effect on performance in inverted screen test” value (doses lower than 200 mg/kg) is reported as “did not produce significant effects”.
In the case of `COC(=O)c1ccc(OC)c(O)c1` [TBJ2], the ED50 (2 min, 2 min post-treatment) is reported as ~100 mg/kg, the ED50 (5 min, 5 min post-treatment) is reported as > 100 mg/kg and the ED50 (10 min, 10 min post-treatment) is reported as 132 mg/kg. For the same compound, the ED50 (20 min, at 20 min (printed in the 30 min line)) was ~140 mg/kg, the “potency relative to vanillin” value was “approximately equipotent to vanillin” and the “persistence of effect on performance” value (highest dose (200 mg/kg)) was 20 min. The “potency and duration relative to vanillin” value (mouse, in vivo) was “approximately equipotent and as long or longer acting”.
For `COC(=O)Cc1ccc(O)c(OC)c1` [TBJ3], the “ED-50: activity in words” value (10 min post-treatment, inactive at 200 (mg/kg)) was “inactive”, the ED50 (5 min, 5 min post-treatment) was 99.7 mg/kg and the “time by which effect had essentially abated” value (after injection) was ≤ 10 min. For the same compound, the “potency relative to vanillin” value was “approximately equipotent to vanillin”.
